{"source": "patent US11142515B2", "about": "“Pyrazolyl-ureas as kinase inhibitors” (RESPIVERT LIMITED, priority 2014, dated 2021)", "system": "alveolar macrophages and neutrophils in BALF", "experiment": "Cigarette smoke model: macrophages and neutrophils in BALF", "type": "in vivo, A/J mice", "details": "mice; for Cell numbers in BALF, Macrophage / Cell numbers in BALF, Macrophage, % inhibition / Cell numbers in BALF, Neutrophil / Cell numbers in BALF, Neutrophil, % inhibition: tobacco smoke", "procedure": "A/J mice (males, 5 weeks old) were exposed to cigarette smoke (4% cigarette smoke, diluted with air) for 30 min/day for 11 days using a Tobacco Smoke Inhalation Experiment System for small animals (Model SIS-CS; Sibata Scientific Technology, Tokyo, Japan). […] At 12 h after the last […], each of the animals was anesthetized, the trachea cannulated and bronchoalveolar lavage fluid (BALF) was collected. The numbers of alveolar macrophages and neutrophils were determined by FACS analysis (EPICS® ALTRA II, Beckman Coulter, Inc., Fullerton, Calif., USA) using anti-mouse MOMA2 antibody (macrophage) or anti-mouse 7/4 antibody (neutrophil). BALF was centrifuged and the supernatant was collected. The level of keratinocyte chemoattractant (KC; CXCL1) in BALF was quantitated using a Quantikine® mouse KC ELISA kit (R&D systems, Inc., Minneapolis, Minn., USA).", "data": [{"smiles": "Cc1ccc(-n2nc(C(C)(C)C)cc2NC(=O)Nc2ccc(OCc3ccnc(Nc4cnccn4)c3)c3ccccc23)cc1", "note": "[Example 1, 1-(3-(tert-Butyl)-1-(p-tolyl)-1H-pyrazol-5-yl)-3-(4-((2-(pyrazin-2-ylamino)pyridin-4-yl)methoxy)naphthalen-1-yl)urea]", "values": [{"measurement": "Cell numbers in BALF, Macrophage", "setting": "0.07 μg/mouse", "result": 172700, "unit": "mL⁻¹"}, {"measurement": "Cell numbers in BALF, Macrophage, % inhibition", "setting": "0.07 μg/mouse", "result": 10.2, "unit": "%"}, {"measurement": "Cell numbers in BALF, Neutrophil", "setting": "0.07 μg/mouse", "result": 94200, "unit": "mL⁻¹"}, {"measurement": "Cell numbers in BALF, Neutrophil, % inhibition", "setting": "0.07 μg/mouse", "result": 13.7, "unit": "%"}, {"measurement": "Cell numbers in BALF, Macrophage", "setting": "0.7 μg/mouse", "result": 149200, "unit": "mL⁻¹"}, {"measurement": "Cell numbers in BALF, Macrophage, % inhibition", "setting": "0.7 μg/mouse", "result": 26.5, "unit": "%"}, {"measurement": "Cell numbers in BALF, Neutrophil", "setting": "0.7 μg/mouse", "result": 76600, "unit": "mL⁻¹"}, {"measurement": "Cell numbers in BALF, Neutrophil, % inhibition", "setting": "0.7 μg/mouse", "result": 33.7, "unit": "%"}, {"measurement": "Cell numbers in BALF, Macrophage", "setting": "7 μg/mouse", "result": 113400, "unit": "mL⁻¹"}, {"measurement": "Cell numbers in BALF, Macrophage, % inhibition", "setting": "7 μg/mouse", "result": 51.1, "unit": "%"}, {"measurement": "Cell numbers in BALF, Neutrophil", "setting": "7 μg/mouse", "result": 60400, "unit": "mL⁻¹"}, {"measurement": "Cell numbers in BALF, Neutrophil, % inhibition", "setting": "7 μg/mouse", "result": 52.0, "unit": "%"}, {"measurement": "macrophage and neutrophil accumulation in BALF induced by cigarette smoke (in words)", "result": "dose-dependent inhibition"}]}]}
